Assay results published in patent US20050239656A1, “Pyridine compounds or salts thereof and herbicides containing the same” (priority 2002, published 2005).

Tested on: barnyardgrass
Assay: Test Example 1: foliage treatment, upland pot test
Type: in vivo, Echinochloa crus-galli L.
Settings: active ingredient 500 g/ha, observed 18th to 23rd day, 0 = non-treated, 100 = complete kill
How it was run: (§1)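 Crops and weeds were sown in upland soil pots and sprayed post-emergence at set leaf stages (soybean 0.1–0.4, wheat 1.3–2.4, rice 1.2–2.6, barnyardgrass 1.3–2.8). Formulated compound was applied in 500 L/ha water with 0.1% spreader. Growth control (0–100%) was rated visually 18–23 days later.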

Structure (SMILES)	Growth controlling degree (%) Barnyardgrass [%]
Cc1ccc(S(=O)(=O)N(C)C(c2cnccc2C(F)(F)F)C(C)C)cc1 (racemic) [I-130]	70

Tested on: crabgrass
Assay: Test Example 1: foliage treatment, upland pot test
Type: in vivo, Digitaria sanguinalis L.
Settings: active ingredient 500 g/ha, observed 18th to 23rd day, 0 = non-treated, 100 = complete kill

Structure (SMILES)	Growth controlling degree (%) Crabgrass [%]
Cc1ccc(S(=O)(=O)N(C)C(c2cnccc2C(F)(F)F)C(C)C)cc1 (racemic) [I-130]	80

Tested on: green foxtail
Assay: Test Example 1: foliage treatment, upland pot test
Type: in vivo, Setaria viridis L.
Settings: active ingredient 500 g/ha, observed 18th to 23rd day, 0 = non-treated, 100 = complete kill

Structure (SMILES)	Growth controlling degree (%) Green foxtail [%]
Cc1ccc(S(=O)(=O)N(C)C(c2cnccc2C(F)(F)F)C(C)C)cc1 (racemic) [I-130]	60

Tested on: redroot pigweed
Assay: Test Example 1: foliage treatment, upland pot test
Type: in vivo, Amaranthus retroflexus L.
Settings: active ingredient 500 g/ha, observed 18th to 23rd day, 0 = non-treated, 100 = complete kill

Structure (SMILES)	Growth controlling degree (%) Redroot pigweed [%]
Cc1ccc(S(=O)(=O)N(C)C(c2cnccc2C(F)(F)F)C(C)C)cc1 (racemic) [I-130]	70

Tested on: prickly sida
Assay: Test Example 1: foliage treatment, upland pot test
Type: in vivo, Sida spinosa L.
Settings: active ingredient 500 g/ha, observed 18th to 23rd day, 0 = non-treated, 100 = complete kill

Structure (SMILES)	Growth controlling degree (%) Prickly sida [%]
Cc1ccc(S(=O)(=O)N(C)C(c2cnccc2C(F)(F)F)C(C)C)cc1 (racemic) [I-130]	80

Tested on: velvetleaf
Assay: Test Example 1: foliage treatment, upland pot test
Type: in vivo, Abutilon theophrasti MEDIC.
Settings: active ingredient 500 g/ha, observed 18th to 23rd day, 0 = non-treated, 100 = complete kill

Structure (SMILES)	Growth controlling degree (%) Velvetleaf [%]
Cc1ccc(S(=O)(=O)N(C)C(c2cnccc2C(F)(F)F)C(C)C)cc1 (racemic) [I-130]	70

Tested on: rice
Assay: Test Example 1: foliage treatment, upland pot test
Type: in vivo, Oryza sativa L.
Settings: crop, active ingredient 500 g/ha, observed 18th to 23rd day, 0 = non-treated, 100 = complete kill
How it was run: as §1

Structure (SMILES)	Growth controlling degree (%) Rice [%]
Cc1ccc(S(=O)(=O)N(C)C(c2cnccc2C(F)(F)F)C(C)C)cc1 (racemic) [I-130]	40

Tested on: wheat
Assay: Test Example 1: foliage treatment, upland pot test
Type: in vivo, Triticum spp.
Settings: crop, active ingredient 500 g/ha, observed 18th to 23rd day, 0 = non-treated, 100 = complete kill
How it was run: as §1

Structure (SMILES)	Growth controlling degree (%) wheat [%]
Cc1ccc(S(=O)(=O)N(C)C(c2cnccc2C(F)(F)F)C(C)C)cc1 (racemic) [I-130]	10

Tested on: corn
Assay: Test Example 1: foliage treatment, upland pot test
Type: in vivo, Zea mays L.
Settings: crop, active ingredient 500 g/ha, observed 18th to 23rd day, 0 = non-treated, 100 = complete kill
How it was run: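 Corn seeds were sown in upland field soil held in a 1/170,000 ha pot and grown to the 2.1 to 3.2 leaf stage. A wettable powder or emulsifiable concentrate of the test compound was diluted with water at 500 L/ha, given 0.1% (v/v) agricultural spreader, and sprayed onto the foliage with a small sprayer. Growth controlling degree (%) was scored visually 18th to 23rd days later, from 0 (non-treated) to 100 (complete kill).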

Structure (SMILES)	Growth controlling degree (%) Corn [%]
Cc1ccc(S(=O)(=O)N(C)C(c2cnccc2C(F)(F)F)C(C)C)cc1 (racemic) [I-130]	70

Tested on: soybean
Assay: Test Example 1: foliage treatment, upland pot test
Type: in vivo, Glycine max Merr.
Settings: crop, active ingredient 500 g/ha, observed 18th to 23rd day, 0 = non-treated, 100 = complete kill
How it was run: as §1

Structure (SMILES)	Growth controlling degree (%) Soybean [%]
Cc1ccc(S(=O)(=O)N(C)C(c2cnccc2C(F)(F)F)C(C)C)cc1 (racemic) [I-130]	40

Tested on: barnyardgrass
Assay: Test Example 2: soil surface treatment, upland pot test
Type: in vivo, Echinochloa crus-galli L.
Settings: active ingredient 250 g/ha, observed 20th to 28th day
How it was run: (§2)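 Visual growth-control ratings (0 = untreated, 100 = complete kill) were taken 20–28 days after soil surface application. The spray was made one day post-sowing in upland soil pots, using formulated compound diluted with water at 1,500 L/ha at a set active ingredient rate.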

Structure (SMILES)	Growth controlling degree (%) Barnyardgrass [%]
Cc1ccc(S(=O)(=O)N(C)C(c2cnccc2C(F)(F)F)C(C)C)cc1 (racemic) [I-130]	100

Tested on: crabgrass
Assay: as above
Type: in vivo, Digitaria sanguinalis L.
Settings: active ingredient 250 g/ha, observed 20th to 28th day
How it was run: as §2

Structure (SMILES)	Growth controlling degree (%) Crabgrass [%]
Cc1ccc(S(=O)(=O)N(C)C(c2cnccc2C(F)(F)F)C(C)C)cc1 (racemic) [I-130]	98

Tested on: green foxtail
Assay: as above
Type: in vivo, Setaria viridis L.
Settings: active ingredient 250 g/ha, observed 20th to 28th day
How it was run: as §2

Structure (SMILES)	Growth controlling degree (%) Green foxtail [%]
Cc1ccc(S(=O)(=O)N(C)C(c2cnccc2C(F)(F)F)C(C)C)cc1 (racemic) [I-130]	95

Tested on: redroot pigweed
Assay: as above
Type: in vivo, Amaranthus retroflexus L.
Settings: active ingredient 250 g/ha, observed 20th to 28th day
How it was run: as §2

Structure (SMILES)	Growth controlling degree (%) Redroot pigweed [%]
Cc1ccc(S(=O)(=O)N(C)C(c2cnccc2C(F)(F)F)C(C)C)cc1 (racemic) [I-130]	10

Tested on: prickly sida
Assay: as above
Type: in vivo, Sida spinosa L.
Settings: active ingredient 250 g/ha, observed 20th to 28th day
How it was run: as §2

Structure (SMILES)	Growth controlling degree (%) Prickly sida [%]
Cc1ccc(S(=O)(=O)N(C)C(c2cnccc2C(F)(F)F)C(C)C)cc1 (racemic) [I-130]	50

Tested on: velvetleaf
Assay: as above
Type: in vivo, Abutilon theophrasti MEDIC.
Settings: active ingredient 250 g/ha, observed 20th to 28th day
How it was run: as §2

Structure (SMILES)	Growth controlling degree (%) Velvetleaf [%]
Cc1ccc(S(=O)(=O)N(C)C(c2cnccc2C(F)(F)F)C(C)C)cc1 (racemic) [I-130]	10

Tested on: rice
Assay: as above
Type: in vivo, Oryza sativa L.
Settings: active ingredient 250 g/ha, observed 20th to 28th day
How it was run: as §2

Structure (SMILES)	Growth controlling degree (%) Rice [%]
Cc1ccc(S(=O)(=O)N(C)C(c2cnccc2C(F)(F)F)C(C)C)cc1 (racemic) [I-130]	40

Tested on: wheat
Assay: as above
Type: in vivo, Triticum spp.
Settings: active ingredient 250 g/ha, observed 20th to 28th day
How it was run: as §2

Structure (SMILES)	Growth controlling degree (%) wheat [%]
Cc1ccc(S(=O)(=O)N(C)C(c2cnccc2C(F)(F)F)C(C)C)cc1 (racemic) [I-130]	20

Tested on: corn
Assay: as above
Type: in vivo, Zea mays L.
Settings: active ingredient 250 g/ha, observed 20th to 28th day
How it was run: as §2

Structure (SMILES)	Growth controlling degree (%) Corn [%]
Cc1ccc(S(=O)(=O)N(C)C(c2cnccc2C(F)(F)F)C(C)C)cc1 (racemic) [I-130]	20

Tested on: soybean
Assay: as above
Type: in vivo, Glycine max Merr.
Settings: active ingredient 250 g/ha, observed 20th to 28th day
How it was run: as §2

Structure (SMILES)	Growth controlling degree (%) Soyabean [%]
Cc1ccc(S(=O)(=O)N(C)C(c2cnccc2C(F)(F)F)C(C)C)cc1 (racemic) [I-130]	10

Tested on: barnyardgrass
Assay: Test Example 3: paddy pot test, application under submerged conditions
Type: in vivo, Echinochloa crus-galli L.
Settings: active ingredient 125 g/ha; submerged application at 0.5 leaf stage; visually observed 14 days after application; 0 = non-treated, 100 = complete kill
How it was run: (§3)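 Barnyardgrass and japanese bulrush sown in flooded paddy soil in greenhouse pots, japanese ribbon wapato tubers planted 1–2 days later; water depth kept at 3–4 cm. Diluted wettable powder or emulsifiable concentrate applied into water at 0.5-leaf or primary-leaf stage at set active-ingredient doses. Growth control scored visually at 14 days, 0 (untreated) to 100% (complete kill).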

Structure (SMILES)	Growth controlling degree (%) Barnyardgrass [%]
Cc1ccc(S(=O)(=O)N(C)C(c2cnccc2C(F)(F)F)C(C)C)cc1 (racemic) [I-130]	100

Tested on: japanese bulrush
Assay: as above
Type: in vivo, Scirpus juncoides
Settings: active ingredient 125 g/ha; submerged application at 0.5 leaf stage; visually observed 14 days after application; 0 = non-treated, 100 = complete kill
How it was run: as §3

Structure (SMILES)	Growth controlling degree (%) Japanese bulrush [%]
Cc1ccc(S(=O)(=O)N(C)C(c2cnccc2C(F)(F)F)C(C)C)cc1 (racemic) [I-130]	70

Tested on: rice (var. Nihonbare)
Assay: Test Example 3: paddy pot test, transplanted rice
Type: in vivo, Oryza sativa L.
Settings: active ingredient 125 g/ha, applied 4th day after transplantation, visually observed 21st day after application, 0 = non-treated, 100 = complete kill
How it was run: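 Rice (var. Nihonbare) at 2 leaf stage transplanted 3 cm deep into puddled paddy soil under 3–4 cm flooding; on day 4 after transplanting, diluted wettable powder or emulsifiable concentrate applied by pipette under submerged conditions at a set active-ingredient dose. Growth scored visually 21 days after application, 0 (untreated) to 100 (complete kill) %.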

Structure (SMILES)	Growth controlling degree (%) Rice [%]
Cc1ccc(S(=O)(=O)N(C)C(c2cnccc2C(F)(F)F)C(C)C)cc1 (racemic) [I-130]	10
